Like-named read-outs stand apart in the source and are kept apart here.
What was measured:
Format in all cases: cell-based, human
[1] = tested on: normal cells and different lung cancer cell lines; test: Inhibition of cell proliferation, CCK8 method, comparison in words over the whole cell panel; conditions: BEAS-2B, HBE, H460, A549, H1975, HCC827; CCK8, 48 h
Protocol: (§1) Compounds 1-9 of the present invention were respectively weighed and dissolved in 1 ml of dimethyl sulfoxide (DMSO), to prepare a 10 mM drug solution, which was stored in a refrigerator at −20° C. in the dark after packaging. The stock solution was diluted with the corresponding culture medium to the required concentration just before the experiment.
(§2) HBE cells and BEAS-2B cells are normal lung bronchial epithelial cell lines, and both cells were cultured in DMEM high glucose medium (supplemented with 10% fetal bovine serum and 1% double antibody) to the logarithmic growth phase; H460 cells, A549 cells, H1975 cells and HCC827 cells are lung cancer cell lines, and all of them were cultured in RPMI1640 medium (supplemented with 10% fetal bovine serum and 1% double antibody) to the logarithmic growth phase. Among them, H1975 cells and HCC827 cells are EGFR mutant cells.
(§3) When the cells were cultured to 90% of the growth density, the cells were digested with 0.25% trypsin to prepare a single cell suspension. The cells were counted, and then seeded in a 96-well plate at a density of 5000 cells/well, 100 μl for each well. The culture plate was moved into a CO2 incubator and incubated for 24 h at 37° C. and 5% CO2. Compounds at different concentrations were added to each well, 5 replicate wells for each concentration, and the cells were treated with the compounds for 48 hours. CCK8 detection reagent was added to each well according to the operation manual, and then the plate was further incubated for 1 h before terminating the culture. 450 nm wavelength was chosen, and the absorbance value of each well was adjusted on the microplate ELISA analyzer. The result was recorded. […] was taken as the horizontal axis, and absorbance as the vertical axis to plot a curve. The half inhibitory concentration (IC50) was calculated by Bliss method. Each experiment was repeated at least 3 times.
(§4) Normal lung cell lines and different lung cancer cell lines were selected for experiments. Amongst, the compound with high anti-cancer activity was screened, whose anti-tumor activity was further studied.

[2] = tested on: BEAS-2B cells; test: Inhibition of cell proliferation, CCK8 method; conditions: BEAS-2B normal bronchial epithelial cells, 48 h, read-out: Inhibitory activity (IC50) against BEAS-2B
Protocol: as §1, §2, §3, §4

[3] = tested on: H460 cells; test: Inhibition of cell proliferation, CCK8 method; conditions: 48 h, read-out: Inhibitory activity (IC50) against H460
Protocol: as §1, §2, §3, §4

[4] = tested on: A549 cells; test: Inhibition of cell proliferation, CCK8 method; conditions: A549 lung adenocarcinoma cells, 48 h, read-out: Inhibitory activity (IC50) against A549
Protocol: as §1, §2, §3, §4

[5] = tested on: HCC827 cells; test: Inhibition of cell proliferation, CCK8 method; conditions: HCC827 EGFR mutant cells, 48 h, CCK8, read-out: Inhibitory activity (IC50) against HCC827
Protocol: (§5) The stock solution was diluted with the corresponding culture medium to the required concentration just before the experiment.
as §2
as §3, with “The” for “When the cells were cultured to 90% of the growth density, the cells were digested with 0.25% trypsin to prepare a single cell suspension. The”
(§6) Normal lung cell lines and different lung cancer cell lines were selected for experiments.

[6] = tested on: H1975 cells; test: Inhibition of cell proliferation, CCK8 method; conditions: H1975 EGFR mutant cells, 48 h, read-out: Inhibitory activity (IC50) against H1975
Protocol: as §5, §2
as §3, with “The” for “When the cells were cultured to 90% of the growth density, the cells were digested with 0.25% trypsin to prepare a single cell suspension. The”
as §6

[7] = tested on: HCC827 cells; test: Cell cycle, PI staining, flow cytometry; conditions: 18 h (control 33.66)
Protocol: (§7) A variety of different cells in the logarithmic growth phase were inoculated evenly in a 6-well plate at a concentration of 1×10^6 cells/well, 2 ml for each well, and then incubated overnight. Then, different compounds were added, and each compound was set different concentrations. After 18 h, the cells were collected, resuspended in PBS, and centrifuged to remove the supernatant, to which was then added 0.5 ml of pre-cooled 75% absolute ethanol dropwise, followed by vortexing to mix the cells and standing overnight at 4° C. The solution was centrifuged at 1000 rpm/min for 4 min, and the supernatant was discarded. Propidium iodide staining solution was prepared by using 5.6 ml staining buffer, 210 μl propidium iodide staining solution (25×), and 56 μl RNaseA (2.5 mg/ml). 0.4 ml of propidium iodide staining solution was added to each tube to resuspend the cells, and then incubated for 30 min at room temperature in the dark. The cell suspension was gently pipetted to mix, filtered into a flow tube, and stored in the dark at 4° C. The cells were detected on the flow cytometer within 1 h.

[8] = tested on: H1975 cells; test: Cell cycle, PI staining, flow cytometry; conditions: 18 h (control 30.25)
Protocol: as §7

[9] = tested on: HCC827 cells; test: Apoptosis, Annexin V-FITC/PI double staining, flow cytometry; conditions: 18 h (control 10.8)
Protocol: (§8) Apoptosis was detected by Annexin V-FITC/PI double staining method. A variety of different cells in the logarithmic growth phase were inoculated evenly in a 6-well plate at a concentration of 1×10^6 cells/well, 2 ml for each well, and then incubated overnight. Then, different compounds were added, and each compound was set different concentrations. After 18 h, the cells were collected with 0.25% trypsin without EDTA and washed twice with PBS solution. Then, the cells were stained by the apoptosis detection kit according to the instructions, and analyzed by flow cytometry.
(§9) In the experiment, human lung cancer cells HCC827 cells and H1975 cells were selected as the detection system. The control group was a blank control (DMSO). The test concentrations of the compounds were 0.5 μM and 5 μM. After treatment with the compounds for 18 h, the flow cytometry was used for detection. In the apoptosis result graph, the cells in quadrant E1 are necrotic cells, the cells in quadrant E2 are late apoptotic cells, the cells in quadrant E3 area represent live cells, and the cells in quadrant E4 are early apoptotic cells.

[10] = tested on: H1975 cells; test: as above; conditions: 18 h (control 9.2)
Protocol: as §8, §9

[11] = tested on: HBE cells; test: Inhibition of cell proliferation, CCK8 method; conditions: HBE normal bronchial epithelial cells, 48 h, CCK8; read-out: Inhibitory activity (IC50) against HBE
Protocol: as §5, §2
as §3, with “The” for “When the cells were cultured to 90% of the growth density, the cells were digested with 0.25% trypsin to prepare a single cell suspension. The”
as §6

[12] = H460 large cell lung cancer cells

Row | IC50 ([3]; Homo sapiens, NCI-H460, H460 large cell lung cancer cells) | IC50 ([4]; Homo sapiens) | IC50 ([5]; Homo sapiens) | SMILES | inhibitory effect on different cell lines (in words) [1] | IC50 [2] | IC50 [3, 12] | IC50 [4] | IC50 [5] | IC50 [6] | IC50 ([2]; Homo sapiens) | S phase (%) ([7]; 0.5 μM) | S phase (%) ([7]; 5 μM) | S phase (%) ([8]; 0.5 μM) | S phase (%) ([8]; 5 μM) | Total apoptosis rate (%) ([9]; 0.5 μM) | Total apoptosis rate (%) ([9]; 5 μM) | Total apoptosis rate (%) ([10]; 0.5 μM) | Total apoptosis rate (%) ([10]; 5 μM) | IC50 [11]
1 |  |  |  | C=CC(=O)Nc1cccc(Oc2nc(Nc3ccc(N4CCN(C)CC4)c(F)c3)nc3[nH]ccc23)c1 [Compound 1] | basically the same as that of the positive control | 3.68 µM | 6.02 µM | 1.92 µM | 0.1 µM | 2.06 µM |  |  |  |  |  |  |  |  |  | 
2 | 5.68 µM | 2.01 µM | 0.11 µM | C=CC(=O)Nc1cccc(Oc2nc(Nc3ccc(N4CCN(C)CC4)c(F)c3)nc3[nH]ccc23)c1 [Avitinib, reference compound] |  |  |  |  |  |  | 4.11 µM | 9.09% | 10.83% | 3.74% | 13.19% | 30.3% | 35.4% | 9.5% | 11.7% | 
3 |  |  |  | C=CC(=O)Nc1cccc(Oc2nc(Nc3ccc(N4CCN(C)CC4)cc3)nc3[nH]ccc23)c1 [Compound 3] | lower | 23.8 µM | 36 µM | 9.92 µM | 0.24 µM | 22 µM |  |  |  |  |  |  |  |  |  | 28.1 µM
